Data as given in publication PMC12491701, “Discovery of an APP-selective BACE1 inhibitor for Alzheimer's disease” (Neurotherapeutics, 2025).
≈ marks a conversion by molar mass, not a printed value. Read-outs that look alike come from different tables or passages of the source.

Columns and labels:
Kinetic solubility assay = type: physicochemical; conditions: aqueous buffer, kinetic from dmso stock, PBS pH 7.4, 37 °C
Protocol: FAH65 and its enantiomers at 10 mM in 100% DMSO was diluted in PBS pH 7.4 to 100, 10, 1, and 0.1 µM; plus, a vehicle-only control. The solutions were incubated at 37 °C for 90 min and centrifuged at 16K x g for 5 min. An aliquot of each supernatant was analyzed by LC-MS/MS. A standard curve was generated by plotting the known amount of analyte per standard in DMSO vs. chromatographic peak […]
Kinetic solubility (µM) was calculated using the trendline equation with maximum chromatographic peak area observed in the aqueous sample. (Table S3)
Liver microsome stability assay
A 1 µL sample of 1 mM FAH65 and its enantiomers in 100% DMSO was added to 1 mL of 0.5 mg/mL human liver microsomes (Thermo Fisher Scientific, Cat# HMMPL) in PBS pH 7.4, 2 mM NADPH, and 2 mM MgCl2; and incubated at 37 °C for 120 min. Aliquots (50 µL) of the microsome solution were taken […]
quenching solution containing an internal standard. Solutions were clarified by centrifugation (16K x g, 5 min) and supernatants transferred to new tubes and lyophilized. Samples were reconstituted in 100 µL of 50/50/0.1 water/acetonitrile/formic acid prior to analysis via LC-MS/MS. […]
One µL FAH65 and its enantiomers (1 mM in 100% DMSO) was added to human peripheral blood plasma (Cat#70039, Stemcell Technologies Inc) diluted 2-fold in PBS (1000 µL, pH 7.4) and incubated […]

[1] = Efficacy testing in B254 mice; type: in vivo, mouse; conditions: both sexes, B254, mouse, brain, oral, 30 mg/kg BID, read-out: mean brain level of compound
Text: (§1) B254 mice are an AD model comprising expression of human APP with Swedish and Indiana mutations along with a D664A substitution and endogenous murine tau, as described in Galvan et al.. In our in vivo studies, we detected impairment in learning and memory in B254 D664A mice at 5–6 months of age (end of chronic treatment) in the novel location and novel object spatial memory testing paradigms. We note that previous studies have reported conflicting findings for such impairments when using in the Morris Water Maze. […] In a later study performed by a different group, it was reported that at both 2–3 or 5–7 months of age B254 and J20 mice had similar abnormalities relative to non-transgenic mice in spatial and nonspatial learning and memory. Our findings were in alignment with the latter studies.
(§2) Male and female 4-5 month-old B254 mice in the subchronic and chronic treatment were administered FAH65 via pipette feeding by the method of Atcha et al. at a dose of 30 mg/kg BID (60 mg/kg/day). Mice were weighed before the first dose for the calculation of volume to be administered. The formulation used comprised FAH65 hydrochloride as a 40 mg/mL solution in water plus 30 mg/mL in strawberry syrup.
(§3) In the pilot subchronic study, mice were treated for 10 days, and in the follow-up study, for 26 days. One week before the end of the study, mice in the pilot study underwent Novel Object Recognition (NOR) memory testing, and mice in the follow-up chronic study underwent both NOR and Novel Location Recognition (NLR) testing as described elsewhere. Briefly, mice are introduced to two identical, parallel and evenly objects in an opaque 30 × 40 cm arena (box without a lid) with navigation marks on the wall, for 10 min. For Novel Location Recognition (NLR), after a 2.5-h interval, the mouse is returned to the arena wherein one identical object has been moved diagonally. The time spent and number of discreet interactions with the objects in the original location and in the new location over 10 min is recorded. The mouse is then removed from the arena, and after an additional 2.5-h interval, for the Novel Object Recognition (NOR) phase, is returned to the arena wherein the objects are in the original position, but one is a new, different object. The time spent and number of discreet interactions with the objects in the original location and in the new location over 10 min is recorded. The novelty preference was calculated by […].
(§4) For in vivo studies, Individual tissues were weighed and sonicated on ice with AlphaLISA Lysis Buffer complemented with HALT (Fisher catalog # 78446) to give a 10 % W/V sonicate. Total protein concentration was assessed by BCA assay (Fisher catalog # 23227) following manufacturer recommendations.
(§5) For the ELISA assay to assess sAPPβ levels in brain an IBL ELISA (kit #27733) specific for sAPPβ with the Swedish (K595 N/M596L) mutation that is present in the APP transgene of the mouse model used following the kit instructions. Briefly, 499 μL of EIA buffer was added to individual tubes for each sample, 1 μL of sample added, vortexed and centrifuged. To each assay plate well, 100 μL of sample was added, and the covered plate incubated overnight at 4 °C. The plate(s) was washed 4 times with 350 μL/well wash buffer, then 100 μL/well of labeled antibody added followed by incubation for 30 min at 4 °C. After five washes, 100 μL chromogen solution was added to each well and incubated for 30 min at RT in the dark. Stop solution (100 μL/well) was then added and the plate read at 450 nm. […]

B254 mice = experiment: Efficacy testing in B254 mice; type: in vivo, mouse
Text: as §1, §2, §3, §4, §5

[2] = chronic study, oral 30 mkd, 26 days

- solubility kinetic at 90 min (Kinetic solubility assay): 88 µM (≈ 37.3 µg/mL)
- concentration at 2 h ([1]; chronic, 2 h after last day dosing): ~50 ng/g
- concentration at 2 h ([1]; subchronic, 2 h after the last dose): ~20 ng/g
SMILES: Cc1cc(C2(c3cccc(-c4cncnc4)c3)N=C(N)N(C)C2=O)ccc1OC(F)F (centres unmarked) [FAH65]
- novelty preference in NOR vs. vehicle (B254 mice; [2]): significant increase
- novelty preference in Novel Location Recognition (NLR) vs. vehicle (B254 mice; [2]): significant increase
- brain level of Aβ1-42 vs. vehicle (B254 mice; chronic, 26 days): not significantly different
- brain level of sAPPβ vs. vehicle (B254 mice; chronic, 26 days): not significantly different
- sAPPα in brain tissue vs. vehicle (B254 mice; chronic, 26 days): significantly higher
- sAPPβ/sAPPα ratio in brain tissue vs. vehicle (B254 mice; chronic, 26 days): significantly lower
- Novel Object Recognition (NOR) performance vs. vehicle (B254 mice; pilot subchronic study, oral 30 mkd, 10 days): not significantly increased
- GFAP, IP-10, Aβ1-38, Aβ1-40, Aβ1-42 and Aβ1-42/1-40 ratio in brain (MSD) vs. vehicle (B254 mice; subchronic study): no significant differences
- APP β-CTF in brain tissue vs. vehicle (B254 mice; subchronic, 10 days): significant decrease
- Aβ 1-42 in brain vs. vehicle (B254 mice; subchronic, 10 days): not significant
- p-tau/t-tau ratio in brain vs. vehicle (B254 mice; subchronic, 10 days): not significant
